PMC10220917, “Transdermal Delivery of α-Aminophosphonates as Semisolid Formulations—An In Vitro-Ex Vivo Study” (Pharmaceutics, 2023)
“And” between values parts separate entries of the source, which are not always exact repeats. Equal entries are not always repeated.

Legend:
[1] = Drug release in static Franz diffusion cells through cellulose acetate membrane; assay type: in vitro ADME; conditions: 2% cream, Franz cell, 32 °C
Protocol: (§1) For the in vitro studies, cellulose acetate filter with pore size of 0.45 μm (Sartorius AG, Göttingen, Germany) was cut to size (35 mm and 18 mm diameter discs for Franz diffusion cell and skin-on-a-chip microfluidic system, respectively) and soaked in isopropyl myristate (Molar Chemicals Kft., Halásztelek, Hungary) for 30 min before the experiment. The excess of isopropyl myristate was removed, and the impregnated cellulose acetate membrane was placed into the Franz diffusion cell or microfluidic diffusion chamber.
Hanson 6-Cell Manual Diffusion Test System-type vertical diffusion cells (Franz cell) were used (Hanson Research Corp., Chatsworth CA, USA; ABL&E-JASCO Hungary Kft., Budapest, Hungary, Figure 1A). Each unit was composed of a donor chamber, which was filled with 1000 µL of the aminophosphonate cream by a Microman E piston gel positive replacement pipette (Gilson, Middleton, WI, USA). The sample was layered in a uniform layer on the top of the membrane. The weight of the sample was measured with analytical accuracy. […]
(§2) The Franz diffusion cell data and the skin-on-a-chip data were averaged, and the means and standard error of the mean (SE) were calculated and presented. Area under the curve (AUC) values were calculated using Origin Pro software. […]

[2] = Drug penetration in static Franz diffusion cells through excised rat skin; assay type: in vitro ADME, male Wistar rats; conditions: 2% cream, Franz cell, 32 °C
Protocol: In the ex vivo experiments, the abdominal skin of male Wistar rats (ToxiCoop, Budapest, Hungary), with 520–609 g bodyweight, were used. The animals had free access to food and water before the study. The experiments were performed in compliance with the guidelines of the Association for Assessment and Accreditation of Laboratory Animal Care International and were in accordance with the spirit of the license issued by the Directorate for the Safety of the Food Chain and Animal Health, Budapest, and Pest Agricultural Administrative Authority, Hungary (PE/EA/4122-7/2016). The rats were anaesthetized intraperitoneally with chloral hydrate (400 mg/kg). The abdominal surface was shaved with an electric shaver and epilated with an epilator cream (X-epil, Aveola Kft., Budapest, Hungary). […] The double-layered skin (pinched together by hand) thickness of the epilated tape-stripped skin was measured with an engineer’s micrometer (Asimeto, Budapest, Hungary). […]
Hanson 6-Cell Manual Diffusion Test System-type vertical diffusion cells (Franz cell) were used (Hanson Research Corp., Chatsworth CA, USA; ABL&E-JASCO Hungary Kft., Budapest, Hungary, Figure 1A). […] The weight of the sample was measured with analytical accuracy. […]

[3] = Drug release in dynamic skin-on-a-chip microfluidic diffusion chamber through cellulose acetate membrane; assay type: in vitro ADME; conditions: 2% cream
Protocol: as §1
The skin-on-a-chip microfluidic diffusion chamber is a polydimethylsiloxane-based system in an aluminium frame (Figure 1B). Similar to the Franz diffusion cells, it contains two compartments, and the membrane or skin is placed between them. The major advantage of this technique is the reduction in needed volumes and pieces in the required components, membranes and skins, as discussed in detail in our previous papers. The diffusion surface is 0.5 cm^2, which separates the aminophosphonate cream-containing donor chamber and the PPF-filled receptor chamber. […]
as §2

[4] = Drug penetration in dynamic skin-on-a-chip microfluidic diffusion chamber through excised rat skin; assay type: in vitro ADME, male Wistar rats; conditions: 2% cream; for Cmax (cumulative mass penetrated through excised skin): dynamic cell, excised rat skin, 5 h; for Effect of higher temperature on absorption across excised skins: 32 °C vs 23.5 °C, dynamic diffusion cells
Protocol: In the ex vivo experiments, the abdominal skin of male Wistar rats (ToxiCoop, Budapest, Hungary), with 520–609 g bodyweight, were used. The animals had free access to food and water before the study. The experiments were performed in compliance with the guidelines of the Association for Assessment and Accreditation of Laboratory Animal Care International and were in accordance with the spirit of the license issued by the Directorate for the Safety of the Food Chain and Animal Health, Budapest, and Pest Agricultural Administrative Authority, Hungary (PE/EA/4122-7/2016). The rats were anaesthetized intraperitoneally with chloral hydrate (400 mg/kg). The abdominal surface was shaved with an electric shaver and epilated with an epilator cream (X-epil, Aveola Kft., Budapest, Hungary). The skin was washed, wiped dry and mechanically sensitized 10 times by tape stripping with leucoplast (BSN Medical GmbH, Hamburg, Germany) to remove the upper layers of dead keratinocytes. This technique enables reaching detectable concentrations in the dermis and hypodermis. The double-layered skin (pinched together by hand) thickness of the epilated tape-stripped skin was measured with an engineer’s micrometer (Asimeto, Budapest, Hungary). The average double-layered skin thickness was 1.53 ± 0.03 mm. After the first cutting with blunt Metzen scissors, connecting tissue, fat and blood vessels were carefully removed. For the Franz diffusion cell and skin-on-a-chip studies, full-thickness skin incisions were made by punches (Stubai GmbH, Fulpmes, Austria) in diameter of 35 mm and 18 mm, respectively. The excised samples were wrapped in aluminium foil and stored in a deep freezer at −80 °C. On the day of the study, the skin preparations were taken out from the freezer for 30 min before the initiation of the experiment and thawed at room temperature.
The skin-on-a-chip microfluidic diffusion chamber is a polydimethylsiloxane-based system in an aluminium frame (Figure 1B). Similar to the Franz diffusion cells, it contains two compartments, and the membrane or skin is placed between them. The major advantage of this technique is the reduction in needed volumes and pieces in the required components, membranes and skins, as discussed in detail in our previous papers. The diffusion surface is 0.5 cm^2, which separates the aminophosphonate cream-containing donor chamber and the PPF-filled receptor chamber. Contrary to the static Franz diffusion cells, the microfluidic diffusion chamber is a dynamic system, i.e., the PPF flow is continuous in the receptor compartment, ensured by a syringe pump (NE-1000, New Era, Farmingdale, NY, USA), which includes a 5 mL syringe filled with PPF, at a flow rate of 4 µL/min during the experiment. The PPF solution was running through the chip, filling the receptor chamber and the microfluidic channel and leaving the device at the outlet into collection vials. The samples were collected every 30 min for 5 h. The collected samples were placed on dry ice and stored at −80 °C until the bioanalysis. First, the experiments were performed at room temperature (23.5 °C) with temperature regulation by automatic air conditioning system in the lab in three parallels. The investigations were then repeated at 32 °C, putting the whole system into an incubator (Steriliser SN160, Memmert GmbH, Schwabach, Germany). As the volume capacity of incubator was low, only one syringe pump and skin-on-a-chip could be tested in the instrument at the same time. […]

[5] = Particle size (droplet size) distribution of 2% creams by laser diffraction; assay type: physicochemical; conditions: 2% cream formulation
Description: α-Aminophosphonates were dispersed in the following hydrophilic cream base (O/W emulsion ointments): 46 m/m% Petrolatum ointment base, 10 m/m% Propylene glycol (Hungaropharma Zrt., Budapest, Hungary), 4 m/m% Paraffin oil (Hungaropharma Zrt., Budapest, Hungary), 38 m/m% Purified water. The components of the Petrolatum ointment base were 26 m/m% Vaselinum album (Hungaropharma Zrt., Budapest, Hungary), 12 m/m% Cetostearyl alcohol (Molar Chemicals Kft, Halásztelek, Hungary), 10 m/m% Propylene glycol, 8 m/m% Paraffin oil, 4 m/m% Polyoxyethylene sorbitan monostearate (Poly-sorbate 60) (Hungaropharma Zrt. Budapest, Hungary), and 40 m/m% Purified water (Table 3). The concentration of propylene glycol was set based on the recommendations on topical dosage forms.
The particle size distribution was measured with a Malvern Mastersizer2000 (Malvern Instruments Ltd., Malvern, UK) laser diffraction device. In total, 1 g of sample was dispersed in 10 mL of water, and after 1 min of Vortex shaking, 1 mL was taken and added to the sample dispenser unit containing 100 mL of purified water. The dispenser unit was applied at 1500 RPM.
The multi-channel detector system measured the scattering of red laser light with a wavelength of […], and the evaluation software provided the results after three parallel exposures according to the Fraunhofer method. The average curves were calculated from three parallel measurements. […]

[6] = tested on: multidrug-resistant (MDR) uterine sarcome cell line; design: method as in earlier work; conditions: MDR uterine sarcoma cells; cited from earlier work

SMILES | Penetration kinetics in the membrane [1] | Cmax (cumulative mass released through membrane) ([1]; cellulose acetate membrane, 5 h) | Penetration profile in rat skin [2] | Cmax (cumulative mass penetrated through excised skin) ([2]; excised rat skin, 5 h) | Cmax (cumulative mass released through membrane) ([3]; dynamic cell, cellulose acetate membrane, 32 °C, 5 h) | Effect of higher temperature on penetration through membranes ([3]; 32 °C vs 23.5 °C, dynamic diffusion cells) | Cmax (cumulative mass penetrated through excised skin) ([4]; 32 °C) | Cmax (cumulative mass penetrated through excised skin) ([4]; ambient temperature (23.5 °C)) | Effect of higher temperature on absorption across excised skins [4] | Particle (droplet) size d of main peak [5] | Volume share at main particle size peak [5] | Degree of cytotoxicity [6] | Particle (droplet) size d of second peak [5] [µm] | Volume share at second particle size peak [5]
CCOP(=O)(OCC)C(NCc1ccccc1)c1ccccc1 (stereo not drawn) [1a] | rapid and saturating | ~ 330 µg/cm^2 | almost linear growing profile | ~ 21 µg/cm^2 | ~ 300 µg/cm^2 | only moderately enhanced | ~ 9 µg/cm^2 | ~ 2.8 μg/cm^2 | significantly improved | 33.156 µm and 33 µm | 7% | less cytotoxic | – | –
CCOP(=O)(OCC)C(NCc1ccccc1)c1ccc(C)cc1 (stereo not drawn) [1b] | – | – | – | – | – | – | – | – | practically independent of the temperature | 30–40 µm | about 6.3% | most effective | 110 | about 3.2%
CCOP(=O)(OCC)C(NCc1ccccc1)c1ccc(Cl)cc1 (stereo not drawn) [1c] | – | – | – | – | – | – | – | – | significantly improved | 20–30 µm | 7.3% | most effective | 110 | ~ 3.0%
